The text below walks through data of patent US10329542B2, “HBV RNAse H purification and enzyme inhibitors” (Saint Louis University, priority 2012, dated 2019).

Test [1] concerns the target T1, HBV genotype D RNAseH (HRHPL) (Hepatitis B virus genotype D subtype ayw, UniProt P03156, INS679M).
T1 construct: HRHPL contains HBV genotype D (Genbank V01460) polymerase residues 684-845; made in house; host or cells: E. coli BL21 codon+
Put plainly: Oligonucleotide-directed RNAseH cleavage assay, HBV genotype D. Format: biochemical. As to conditions: for Residual activity at 10 uM, Genotype D: ± standard deviation, 3 to 7 replicates; for Activity vs. HBV Biochemical vs. gtD: class by concentration giving inhibition (10, 20, 60 μM). As to the method:
(§1) For the oligonucleotide-directed RNAseH cleavage assay (Gong et al., 2001), 6 μl protein extract (typical protein concentration 2.8 mg/ml) was mixed with 0.5 μg internally ^32P-labeled DRF+ RNA (nucleotides 2401-2605 of the duck HBV genome plus 60 nucleotides of flanking sequences from pBluescript) and 3 μg oligonucleotide D2507- or its corresponding negative control D2526+ on ice in 20 μl under the conditions in Table 1. Some reactions in FIG. 5 employed oligonucleotide D2543M-Sal or its D2453+ negative control as indicated. The reactions were incubated at 42° C. for 90 min. and terminated by addition of Laemmli protein loading buffer and boiling. The samples were resolved by 12% SDS-PAGE, the gels were stained with Coomassie blue to monitor protein loading, and labeled RNA was detected by autoradiography. Candidate inhibitors were dissolved in DMSO and added at the indicated concentrations during assembly of the reactions. Control reactions lacking the compounds contained DMSO as a vehicle control. The RNAseH autoradiograms were scanned and quantified with ImageJ.
(§2) Oligonucleotide-directed RNAseH cleavage assays (Gong et al., 2001) were performed as described (Tavis et al., 2013). Briefly, HBV RNAseH extracts were mixed with a 264 nt-long internally ^32P-labeled RNA plus an excess of a complementary DNA oligonucleotide or its inverse-complement as a negative control in a final concentration of 65 mM Tris pH 8.0, 190 mM NaCl, 5 mM MgCl2, 5 mM dTT, 0.05% NP40, and 6% glycerol. βTJ was dissolved in DMSO and added at the indicated concentrations; the final concentration of DMSO in all reactions was 1%. The reactions were incubated at 42° C. for 90 min. and terminated by addition of Laemmli protein electrophoresis buffer. The samples were resolved by SDS-PAGE, labeled RNA was detected by autoradiography, the autoradiograms were scanned, and the RNA cleavage products were quantified with ImageJ (National Institutes of Health). IC50 values were calculated by non-linear regression using GraphPad Prism (GraphPad Software, Inc.).

The test system of test [2] is HBV genotype H RNAseH. Description: Oligonucleotide-directed RNAseH cleavage assay, HBV genotype H. It counts as biochemical, Hepatitis B virus. As to conditions: 10 μM; for Residual activity at 10 uM, Genotype H: ± standard deviation, 3 to 7 replicates. How it is done: as §1, with “ImageJ. The oligonucleotides were: D2526+([…]; SEQ ID NO:8), D2507-([…]; SEQ ID NO:9), D2453+([…]; SEQ ID NO:10), and D2543M-Sal ([…]; SEQ ID NO:11).” for “ImageJ.”
as §2

Test [3] deals with T2, chimeric HBV:HIV RNAseH HHC1 (Hepatitis B virus genotype D subtype ayw, UniProt P03156, DELINS787-795[…]/INS679M).
T2 construct: HHC1 is an HRHPL derivative; made in house; host or cells: E. coli BL21 codon+
Put plainly: Oligonucleotide-directed RNAseH cleavage assay, chimeric HHC1. Particulars: 10 μM; ± standard deviation, 3 to 7 replicates. Format: biochemical.
From the text: pCMV-HBV-LE-(CMV-HBV) is an HBV over-length genomic expression vector containing 1.2 copies of the HBV(adw2) genome (Genbank X02763.1) downstream of the CMV promoter cloned into pBS (Promega). Surface protein expression from this vector is ablated by mutating the preS and S open reading frames. pCMV-HBV(genotype D) is an analogous HBV genomic expression construct and was a gift from Dr. Shuping Tong (Brown University). For bacterial expression, codon-optimized cDNA sequences for HRHPL (genotypes A, B, C, D, and H), and noncodon-optimized sequences for HHC1 and HHC2 were cloned by gene synthesis (Genscript) between the NcoI and EcoRI sites into pTrcHis2B (Invitrogen) with a C-terminal hexahistidine tag. HRHPL contains HBV genotype D (Genbank V01460) polymerase residues 684-845. HHC1 is an HRHPL derivative in which HBV polymerase residues 800-808 were replaced with HIV residues corresponding to the RNAseH helix D ([…]; SEQ ID NO:6). HHC2 is an HRHPL derivative in which HBV polymerase residues 800-845 were replaced with HIV residues corresponding to the RNAseH helix D to the C-terminus ([…]; SEQ ID NO:7). The human RNAseH1 gene (NP_002927.2) was cloned with an N-terminal hexahistidine-tag between the BamHI and XhoI sites of pRsetB (Invitrogen) by gene synthesis.
as §1, with “ImageJ. The oligonucleotides were: D2526+([…]; SEQ ID NO:8), D2507-([…]; SEQ ID NO:9), D2453+([…]; SEQ ID NO:10), and D2543M-Sal ([…]; SEQ ID NO:11).” for “ImageJ.”

The target of test [4] is T3, human RNAseH1 (Homo sapiens, UniProt O60930).
T3 construct: hexahistidine (N); made in house; host or cells: E. coli BL21 codon+
T3 sequence (O60930 1-286): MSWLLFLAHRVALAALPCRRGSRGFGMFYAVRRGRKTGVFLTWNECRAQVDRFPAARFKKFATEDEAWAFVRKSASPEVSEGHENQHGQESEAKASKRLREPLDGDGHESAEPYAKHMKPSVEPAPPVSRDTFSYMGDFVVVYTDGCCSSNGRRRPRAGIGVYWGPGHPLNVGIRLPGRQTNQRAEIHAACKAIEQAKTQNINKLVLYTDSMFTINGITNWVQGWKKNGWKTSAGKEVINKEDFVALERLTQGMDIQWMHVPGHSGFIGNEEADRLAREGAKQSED
Description: Oligonucleotide-directed RNAseH assay, recombinant human RNAseH1. Format: biochemical. Particulars: class by concentration giving inhibition (10, 20, 60 μM). How it is done:
as §1, with “ImageJ. The oligonucleotides were: D2526+([…]; SEQ ID NO:8), D2507-([…]; SEQ ID NO:9), D2453+([…]; SEQ ID NO:10), and D2543M-Sal ([…]; SEQ ID NO:11).” for “ImageJ.”
Therefore, the inventors cloned the human RNAseH1 with an N-terminal hexahistidine tag, expressed it in E. coli, and purified the protein by nickel affinity chromatography. […] This enzyme was active in the oligonucleotide-directed and fluorescent RNAseH assays (FIG. 10B and data not shown). To determine how inhibition of human RNAseH1 compared to inhibition of the HBV RNAseH, the inventor titrated the RNAaseH1 enzyme to yield similar levels of activity as the HBV enzyme, and then the inventor directly compared the ability of compounds #8-12 to inhibit human RNAseH1 and HRHPL at 10 μM. […] Therefore, it is possible to inhibit the HBV RNAseH without inhibiting human RNAseH1.
as §2

Test [5] relates to HBV. Put plainly: HBV genomic replication assays (Table 2). Format: cell-based, Hepatitis B virus. As to conditions: class by active concentration. How it is done:
Huh7 cells were maintained in Dulbecco's modified Eagle's medium with 10% fetal bovine serum at 37° C. in 5% CO2. Cells were seeded into 60 mm dishes and transfected at 70% confluency with 2.6 μg of plasmids using TransIT-LT1 (Mirus, Inc.). Test compounds were added the morning following transfection at 10 or 50 μM, and fresh medium containing the compounds was provided every 1-2 days. Four or five days post-transfection HBV cores were isolated by lysis of the cells in 10 mM Tris pH 7.5, 1 mM EDTA, 0.25% NP40, 50 mM NaCl, and 8% sucrose followed by sedimentation through a 30% sucrose cushion as described (Travis, et al., 1998). Viral DNAs were isolated from cytoplasmic core particle preparations by proteinase K digestion followed by phenol/chloroform extraction as described (Gong et al., 2001). Duplicate aliquots of the nucleic acids were treated with 2 U E. coli DNAse-free RNAseH (Invitrogen) at 37° C. for 30 min. or were mock treated. The nucleic acid samples were resolved by electrophoresis on 1.2% agarose gels and detected by Southern blotting with ^32P-labeled HBV DNA as a probe. […]

T1 sequence (P03156 680-832, added parts left off, stated change not applied): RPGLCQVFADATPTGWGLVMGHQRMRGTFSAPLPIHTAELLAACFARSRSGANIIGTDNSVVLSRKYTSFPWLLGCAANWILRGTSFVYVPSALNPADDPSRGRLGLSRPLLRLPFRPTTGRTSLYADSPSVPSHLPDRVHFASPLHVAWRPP
T2 sequence (P03156 680-786, added parts left off, stated change not applied): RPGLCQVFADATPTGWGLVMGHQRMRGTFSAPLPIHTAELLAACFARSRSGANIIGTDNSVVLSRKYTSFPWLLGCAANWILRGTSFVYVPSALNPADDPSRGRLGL

Consider `O=c1c(O)c(-c2ccc(O)c(O)c2)oc2cc(O)c(O)c(O)c12` [Compound 7], for which, in test [1], the “Residual activity at 10 uM, Genotype D” value is on record as 45 ± 19 Percent DMSO control and the “Activity vs. HBV Biochemical vs. gtD” value is on record as “− (− no inhibition at 60 μM)”. Moreover, the “Residual activity at 10 uM, Genotype H” value in test [2] worked out at 68 ± 24 Percent DMSO control. Further, in test [3], the “Residual activity at 10 uM, HHC1” value came out at 56 ± 13 Percent DMSO control. In addition, the “Activity vs. human RNAseH1” value in test [4] is “+++ (+++ inhibition at 10 μM)”. Also, the “Activity vs. HBV Genomic Replication” value in test [5] is given as “− (− no activity at 60 μM)”.
Consider `O=C(O)c1ccc(-c2cccc(C=NNC(=O)c3cc(O)c(O)c(O)c3)c2)cc1` [Compound 15], for which, in test [1], the “Residual activity at 10 uM, Genotype D” value was 47 ± 4 Percent DMSO control and the “Activity vs. HBV Biochemical vs. gtD” value is reported as “− (− no inhibition at 60 μM)”. For the same molecule, the “Residual activity at 10 uM, Genotype H” value in test [2] turned out to be 37 ± 23 Percent DMSO control. In addition, in test [3], the “Residual activity at 10 uM, HHC1” value amounted to 68 ± 6 Percent DMSO control. Moreover, in test [5], the “Activity vs. HBV Genomic Replication” value is given as “− (− no activity at 60 μM)”.
For `Cc1sc2nc(-c3ccc([N+](=O)[O-])cc3)[nH]c(=O)c2c1C` [Compound 38], in that order: 24 ± 1 Percent DMSO control, “+++ (+++ inhibition at 10 μM)”, 38 ± 25 Percent DMSO control, 32 ± 4 Percent DMSO control and “− (− no activity at 60 μM)”.
For `NC(=O)c1c(N)sc2c1CCCCC2` [Compound 3], in that order: 43 ± 14 Percent DMSO control, “− (− no inhibition at 60 μM)”, 68 ± 14 Percent DMSO control, 60 ± 19 Percent DMSO control and “− (− no activity at 60 μM)”.
With `CN(C)c1ccc(-c2c3cc(O)c(=O)cc-3oc3cc(O)c(O)cc23)cc1` [Compound 35], in test [1], the “Residual activity at 10 uM, Genotype D” value came to 27 ± 14 Percent DMSO control and the “Activity vs. HBV Biochemical vs. gtD” value is “+++ (+++ inhibition at 10 μM)”. For the same molecule, the “Residual activity at 10 uM, Genotype H” value in test [2] was 38 ± 20 Percent DMSO control. Further, the “Residual activity at 10 uM, HHC1” value in test [3] is on record as 39 ± 9 Percent DMSO control. Moreover, the “Activity vs. human RNAseH1” value in test [4] is listed as “+++ (+++ inhibition at 10 μM)”. Further, the “Activity vs. HBV Genomic Replication” value in test [5] is “− (− no activity at 60 μM)”.
With `COc1ccc2ccccc2c1C=NNC(=O)c1ccc(O)c(O)c1` [Compound 13], in test [1], the “Residual activity at 10 uM, Genotype D” value was determined as 52 ± 12 Percent DMSO control and the “Activity vs. HBV Biochemical vs. gtD” value is “− (− no inhibition at 60 μM)”. For the same molecule, the “Residual activity at 10 uM, Genotype H” value in test [2] is 42 ± 26 Percent DMSO control. For the same molecule, the “Residual activity at 10 uM, HHC1” value in test [3] was 65 ± 14 Percent DMSO control. Moreover, the “Activity vs. HBV Genomic Replication” value in test [5] is given as “− (− no activity at 60 μM)”.
With `O=c1cc2oc3cc(O)c(O)cc3c(-c3ccccn3)c-2cc1O` [Compound 39], the “Residual activity at 10 uM, Genotype D” value in test [1] is given as 21 ± 2 Percent DMSO control. Moreover, the “Inhibition of HBV genotype H RNAseH” value in test [2] (below threshold of irrelevant controls) is on record as “inhibited”. Also, in test [2], the “Residual activity at 10 uM, Genotype H” value worked out at 26 ± 0 Percent DMSO control. Also, in test [3], the “Residual activity at 10 uM, HHC1” value is recorded as 60 ± 24 Percent DMSO control.
As for `CC(Cc1ccc(O)c(O)c1)C(C)Cc1ccc(O)c(O)c1` (stereo not shown) [Compound 2], in test [1], the “Residual activity at 10 uM, Genotype D” value is on record as 54 ± 18 Percent DMSO control and the “Activity vs. HBV Biochemical vs. gtD” value was “− (− no inhibition at 60 μM)”. In test [2], the “Residual activity at 10 uM, Genotype H” value stood at 67 ± 20 Percent DMSO control. Also, in test [3], the “Residual activity at 10 uM, HHC1” value stood at 35 ± 6 Percent DMSO control. The “Activity vs. HBV Genomic Replication” value in test [5] is on record as “− (− no activity at 60 μM)”.
On to `COC(=O)Oc1nsnc1N1CCOCC1` [Compound 4], for which, in test [1], the “Residual activity at 10 uM, Genotype D” value was determined as 35 ± 6 Percent DMSO control and the “Activity vs. HBV Biochemical vs. gtD” value is “+ (+ inhibition at 60 μM)”. In addition, in test [2], the “Residual activity at 10 uM, Genotype H” value was 68 ± 18 Percent DMSO control. Besides, in test [3], the “Residual activity at 10 uM, HHC1” value is 37 ± 5 Percent DMSO control. Also, the “Activity vs. HBV Genomic Replication” value in test [5] is given as “− (− no activity at 60 μM)”.
